Data from patent US8680013B2, “Growth inhibition of cotton with penoxsulam” (Dow AgroSciences, LLC., priority 2011, dated 2014).
Like-named read-outs stand apart in the source and are kept apart here.

What was measured:
Format in all cases: in vivo
[1] = test system: cotton; assay: Postemergence plant growth regulator activity in the field (cotton); conditions: for Injury (Cotton) / Reduction (height reduction, Cotton) / Maturity (% open bolls, Cotton): 10-leaf stage
Description: Evaluation of Postemergence Plant Growth Regulator Activity in the Field
(§1) One field trial was conducted in field-grown cotton using standard herbicide small plot research methodology (Table 2). Plots were 2 rows wide by 20 ft long with 4 replicates per treatment. The cotton crop was grown using normal cultural practices for fertilization, seeding, watering, flooding and maintenance to ensure good growth of the crop and the weeds.
(§2) All treatments in the field trials were applied using a CO2 backpack sprayer calibrated to apply 187 L/ha spray volume. Commercially available products of penoxsulam and mepiquat chloride were mixed in water at appropriate formulated product rates to achieve the desired rates based on a unit area of application (hectare) to achieve the desired rates as shown. Treatments were sprayed as a postemergence foliar application to cotton at 10-leaf stage application timing. Treatments were rated at 16 and 41 days after the application as compared to the untreated control plants. Visual crop injury ratings were scored on a scale of 0 to 100 where 0 corresponds to no injury and 100 corresponds to complete control. Visual weed control was scored on a scale of 0 to 100 percent where 0 corresponds to no weed control and 100 corresponds to complete control.

[2] = test system: Amaranthus spp, (pigweed); assay: Field trial visual weed control, AMASS; conditions: 16DAA
Description: as §1, §2

[3] = test system: Solanum nigrum (black nightshade); assay: Field trial visual weed control, SOLNI; conditions: 16DAA
Description: as §1, §2

[4] = test system: cotton; conditions: for Number (Bolls): 52DAAA
Description: Evaluation of Postemergence Plant Growth Regulator Activity in the Greenhouse Treatments consisted of the compounds as listed in Table 1. Formulated amounts of penoxsulam (Dow AgroSciences Granite® SC herbicide) were placed in 3-liter bottles and dissolved in a volume of 500 mL of a water solution containing Agri-dex crop oil concentrate in a 1.25% v/v ratio. Compound requirements are based upon a 0.3 L application volume at a rate of 187 liters per hectare (L/ha). Spray solutions of the mixtures were prepared by adding the stock solutions to the appropriate amount of dilution solution to form a 500 mL spray solution with active ingredients in single and two way combinations. Formulated compounds were applied to the plant material via backpack sprayer with XR 11001 nozzles calibrated to deliver 187 L/ha at a spray height of 18 inches ([…] centimeters (cm)) above average plant canopy. The treated and control plants were placed in a greenhouse in a randomized block design on greenhouse carts and watered by […] irrigation to prevent wash-off of the test compounds from leafy tissues. Treatments were rated at 14 to 52 days after application as compared to the untreated control plants. Visual injury ratings were scored on a scale of 0 to 10 where 0 corresponds to no injury and 10 corresponds to complete control.

C[N+]1(C)CCCCC1 [Mepiquat-chloride]
Injury (Cotton) ([1]; 74 gr ai/ha, 16DAA): 0 % Visual | Reduction (height reduction, Cotton) ([1]; 74 gr ai/ha, 16DAA): 11.3 % Visual | Injury (Cotton) ([1]; 74 gr ai/ha, 41DAA): 5 % Visual | Maturity (% open bolls, Cotton) ([1]; 74 gr ai/ha, 41DAA): 53.8 % Visual | Reduction (height reduction, Cotton) ([1]; 74 gr ai/ha, 41DAA): 13.8 % Visual | Control (AMASS) ([2]; 74 gr ai/ha): 95 % Visual | Control (SOLNI) ([3]; 74 gr ai/ha): 91.3 % Visual

COc1cnc(OC)n2nc(NS(=O)(=O)c3c(OCC(F)F)cccc3C(F)(F)F)nc12 [Penoxsulam, 2-(2,2-difluoroethoxy)-N-(5,8-dimethoxy[1.2.4]triazolo[1,5-c]pyrimidine-2-yl)-6-(trifluoromethyl)benzenesulfonamide]
Height ([4]; 8.8 gr ai/ha, application A (4 leaf cotton), 14DAAA): 17.6 Cm | Height ([4]; 8.8 gr ai/ha, application A (4 leaf cotton), 27DAAA): 25.5 Cm | Height ([4]; 8.8 gr ai/ha, application A (4 leaf cotton), 49DAAA): 36.6 Cm | Number (Bolls) ([4]; 8.8 gr ai/ha, application A (4 leaf cotton)): 3.2 Bolls | Height ([4]; 8.8 gr ai/ha, application B (10 leaf cotton, 21 days after A timing), 14DAAA): 28.8 Cm | Height ([4]; 8.8 gr ai/ha, application B (10 leaf cotton, 21 days after A timing), 27DAAA): 32.7 Cm | Height ([4]; 8.8 gr ai/ha, application B (10 leaf cotton, 21 days after A timing), 49DAAA): 44 Cm | Number (Bolls) ([4]; 8.8 gr ai/ha, application B (10 leaf cotton, 21 days after A timing)): 9 Bolls | Height ([4]; 17.5 gr ai/ha, application A (4 leaf cotton), 14DAAA): 15.7 Cm | Height ([4]; 17.5 gr ai/ha, application A (4 leaf cotton), 27DAAA): 21.8 Cm | Height ([4]; 17.5 gr ai/ha, application A (4 leaf cotton), 49DAAA): 33.5 Cm | Number (Bolls) ([4]; 17.5 gr ai/ha, application A (4 leaf cotton)): 2.2 Bolls | Height ([4]; 17.5 gr ai/ha, application B (10 leaf cotton, 21 days after A timing), 14DAAA): 27.2 Cm | Height ([4]; 17.5 gr ai/ha, application B (10 leaf cotton, 21 days after A timing), 27DAAA): 30.4 Cm | Height ([4]; 17.5 gr ai/ha, application B (10 leaf cotton, 21 days after A timing), 49DAAA): 39.2 Cm | Number (Bolls) ([4]; 17.5 gr ai/ha, application B (10 leaf cotton, 21 days after A timing)): 8.4 Bolls | Height ([4]; 35 gr ai/ha, application A (4 leaf cotton), 14DAAA): 15.5 Cm | Height ([4]; 35 gr ai/ha, application A (4 leaf cotton), 27DAAA): 20.5 Cm | Height ([4]; 35 gr ai/ha, application A (4 leaf cotton), 49DAAA): 30.1 Cm | Number (Bolls) ([4]; 35 gr ai/ha, application A (4 leaf cotton)): 2.8 Bolls | plant growth regulator effect on cotton (summary of Table 1) ([4]; greenhouse): growth regulating activity of penoxsulam on cotton growth and increase in cotton boll production | Reduction (height reduction, Cotton) ([1]; 35 gr ai/ha, 16DAA): 11.3 % Visual | Maturity (% open bolls, Cotton) ([1]; 35 gr ai/ha, 41DAA): 62.5 % Visual | Reduction (height reduction, Cotton) ([1]; 35 gr ai/ha, 41DAA): 10 % Visual | Reduction (height reduction, Cotton) ([1]; 70 gr ai/ha, 16DAA): 9.3 % Visual | Maturity (% open bolls, Cotton) ([1]; 70 gr ai/ha, 41DAA): 48.8 % Visual | Reduction (height reduction, Cotton) ([1]; 70 gr ai/ha, 41DAA): 5 % Visual | plant growth regulator effect on cotton (summary of Table 2) ([1]; field): growth inhibiting activity of penoxsulam, similar to the commercial product mepiquat-chloride, while increasing the maturity of cotton bolls | Control (AMASS) ([2]; 35 gr ai/ha): 95 % Visual | Control (AMASS) ([2]; 70 gr ai/ha): 98.8 % Visual | Control (SOLNI) ([3]; 35 gr ai/ha): 88.8 % Visual | Control (SOLNI) ([3]; 70 gr ai/ha): 93.8 % Visual
